From ChEMBL document CHEMBL1139030, “Inhibition of jack bean urease by organobismuth compounds” (Bioorg Med Chem Lett, 2006) come the findings set out here.

The assay concerns the target Urease (Canavalia ensiformis) (UniProt P07374). In words: Inhibitory activity against jack bean urease.

Calls of active or inactive are those of the source. The calls are words filed in the database; no cut-off is given here.

UniProt P07374, sequence (P07374 whole entry, looked up): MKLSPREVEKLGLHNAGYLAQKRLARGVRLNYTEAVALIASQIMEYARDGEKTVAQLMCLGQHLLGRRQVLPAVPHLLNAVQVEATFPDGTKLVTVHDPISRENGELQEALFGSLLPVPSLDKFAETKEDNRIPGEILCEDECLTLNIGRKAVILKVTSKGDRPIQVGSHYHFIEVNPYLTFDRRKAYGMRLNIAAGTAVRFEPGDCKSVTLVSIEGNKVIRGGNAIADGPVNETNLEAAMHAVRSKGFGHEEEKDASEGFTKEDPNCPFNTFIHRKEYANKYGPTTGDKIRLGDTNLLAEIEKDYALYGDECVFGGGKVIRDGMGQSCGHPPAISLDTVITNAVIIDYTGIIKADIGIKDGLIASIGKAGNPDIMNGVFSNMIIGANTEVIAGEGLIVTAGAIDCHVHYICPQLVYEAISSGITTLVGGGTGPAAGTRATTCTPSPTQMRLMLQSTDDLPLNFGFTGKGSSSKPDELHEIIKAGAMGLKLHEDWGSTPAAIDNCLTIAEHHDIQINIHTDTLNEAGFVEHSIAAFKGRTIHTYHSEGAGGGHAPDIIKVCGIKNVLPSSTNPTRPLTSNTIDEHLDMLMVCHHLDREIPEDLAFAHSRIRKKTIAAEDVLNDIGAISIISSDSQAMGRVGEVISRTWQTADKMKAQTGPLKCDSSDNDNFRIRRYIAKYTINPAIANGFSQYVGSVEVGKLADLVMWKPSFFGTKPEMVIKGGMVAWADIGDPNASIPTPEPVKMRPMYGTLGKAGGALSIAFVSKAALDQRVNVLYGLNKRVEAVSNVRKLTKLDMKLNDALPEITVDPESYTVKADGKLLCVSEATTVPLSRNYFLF

Consider “4-[bis(4-cyanophenyl)bismuthanyl]benzonitrile”, for which the outcome was Active. The same measure for “4-[bis(4-cyanophenyl)difluorobismuthanyl]benzonitrile”: “Active”; for TRIPHENYLBISMUTHINE: “Active”; for [sequence]: “Active”. The result for “difluorotris(2,4,6-trimethylphenyl)bismuthane” reads “Active”. difluorotris(4-fluorophenyl)bismuthane: the outcome was Active.

For difluorotris(4-methylphenyl)bismuthane, the result was Active. The result for “difluorotris[4-(trifluoromethyl)phenyl]bismuthane” reads “Active”; that for “ethyl 4-{bis[4-(ethoxycarbonyl)phenyl]bismuthanyl}benzoate”, “Active”; that for “ethyl 4-{bis[4-(ethoxycarbonyl)phenyl]difluorobismuthanyl}benzoate”, “Active”. The same measure for trip-tolylbismuthine: “Active”; for “tris(4-(trifluoromethyl)phenyl)bismuthine”: “Active”; for tris(4-fluorophenyl)bismuth dichloride: “Active”.

With tris(4-fluorophenyl)bismuthine, the outcome was Active.
